pKi: −log10 of the molar value. Where “and” joins values, the source holds several entries; their conditions need not be identical. Equal values may be shown once. Read-outs that look alike come from different tables or passages of the source.
How the values were obtained:
Conditions in all cases: COS-7 membranes
α1b-AR = target: T1, α1b-AR (Homo sapiens, UniProt P35368); assay: α1-Adrenergic Receptor Binding Assay, 125I-HEAT radio-ligand binding, transfected COS-7 cell membranes, α1b subtype
T1 construct: expressed in transfected cells; host or cells: COS-7 cells (African Green monkey kidney), membranes
T1 sequence (P35368 1-520): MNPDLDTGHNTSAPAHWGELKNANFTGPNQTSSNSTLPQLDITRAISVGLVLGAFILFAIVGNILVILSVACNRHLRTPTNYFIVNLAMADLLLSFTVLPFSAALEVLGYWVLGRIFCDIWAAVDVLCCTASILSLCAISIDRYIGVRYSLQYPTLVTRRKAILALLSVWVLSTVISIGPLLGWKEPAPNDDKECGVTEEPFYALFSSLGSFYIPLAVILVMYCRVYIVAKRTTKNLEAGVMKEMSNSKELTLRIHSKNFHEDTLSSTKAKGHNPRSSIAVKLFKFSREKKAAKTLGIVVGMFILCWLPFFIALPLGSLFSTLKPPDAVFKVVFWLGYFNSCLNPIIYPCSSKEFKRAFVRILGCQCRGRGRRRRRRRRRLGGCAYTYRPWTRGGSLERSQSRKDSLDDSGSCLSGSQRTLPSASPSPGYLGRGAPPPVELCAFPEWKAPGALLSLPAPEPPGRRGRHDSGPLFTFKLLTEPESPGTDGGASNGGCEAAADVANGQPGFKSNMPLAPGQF
Method: (§1) Membranes were prepared from COS-7 cells (African Green monkey kidney SV40-transformed cells) that had been transfected with one of the three α1-AR subtypes by the following method: COS cells from ten 100 mm tissue culture plates were scraped into a 5 ml volume of TE (a mixture of 50 mM tris(hydroxymethyl)aminomethane hydrochloride (Tris-HCl) and 5 mM ethylenediaminetetraacetic acid (EDTA) at pH 7.4). The cell suspension was disrupted with a Brinkman Polytron (at a setting of 8) for 10 sec. The disrupted cells were centrifuged at 1000×g for 10 min at 4° C. Supernatants were centrifuged at 34,500×g for 20 min at 4° C. The membrane pellets were suspended in a 2 ml volume of TNE (a mixture of 50 mM Tris-HCl, 5 mM EDTA and 150 mM NaCl at pH7.4). An aliquot of the membrane suspension was stored at −70° C. until use. The protein concentration was determined using a BioRad “DC” protein assay kit following membrane solubilization with Triton X-100.
(§2) Triplicate determinations of radio-ligand binding in the presence of increasing concentrations of testing compound were made. The reagents were added to 96-well polypropylene plate wells. Each assay well contained 140 μL TNE, 25 μL 125′-2-(β-4-hydroxyphenyl)ethylaminomethyltetralone (^125I-HEAT) (specific activity 2200 Ci/mmol, Dupont-New England Nuclear, […] final), 10 μL testing compound dissolved in dimethyl sulfoxide (DMSO) ([…] to 10 μM in half-log increments, final), and 25 μL appropriate α1-AR membrane subtype suspension in TNE (0.5 ng/μL for the α1a and α1b subtypes and 13 ng/μL for the α1d subtype). The plate was incubated at rt for 1 hr. The contents of the wells were filtered through a glass filter (type C) (GF/C) membrane Unifilter plate (Packard Instruments) using the Packard Filtermate cell harvester. The filter plates were dried in a vacuum oven for 30 min at 40° C. 25 μL Microscint 20 liquid scintillation fluid (Packard Instuments) was added to each well. The radioactive content was analyzed in the TopCount microplate scintillation counter (Packard Instruments).
(§3) The Ki values (in nM) shown in Table 1 were determined using GraphPad Prism software.

α1d-AR = target: T2, α1d-AR (Homo sapiens, UniProt P25100); assay: α1-Adrenergic Receptor Binding Assay, 125I-HEAT radio-ligand binding, transfected COS-7 cell membranes, α1d subtype
T2 construct: expressed in transfected cells; host or cells: COS-7 cells (African Green monkey kidney), membranes
T2 sequence (P25100 1-572): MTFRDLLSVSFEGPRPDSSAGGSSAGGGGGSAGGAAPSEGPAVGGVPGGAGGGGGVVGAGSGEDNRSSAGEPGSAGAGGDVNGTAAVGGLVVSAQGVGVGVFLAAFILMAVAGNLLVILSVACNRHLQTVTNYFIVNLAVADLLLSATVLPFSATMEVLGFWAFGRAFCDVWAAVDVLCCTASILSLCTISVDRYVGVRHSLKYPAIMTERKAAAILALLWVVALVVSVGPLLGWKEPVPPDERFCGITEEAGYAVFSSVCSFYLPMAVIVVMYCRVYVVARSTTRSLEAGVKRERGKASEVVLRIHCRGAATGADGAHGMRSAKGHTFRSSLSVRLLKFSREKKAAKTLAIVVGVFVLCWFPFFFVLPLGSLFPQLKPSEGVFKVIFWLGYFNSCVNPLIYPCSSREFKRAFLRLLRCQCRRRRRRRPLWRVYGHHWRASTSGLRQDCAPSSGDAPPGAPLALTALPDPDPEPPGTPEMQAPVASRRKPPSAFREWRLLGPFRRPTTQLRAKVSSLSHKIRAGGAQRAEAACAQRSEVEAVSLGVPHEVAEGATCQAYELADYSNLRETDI
Method: as §1, §2, §3

α1a-AR = target: T3, α1a-AR (Homo sapiens, UniProt P35348); assay: α1-Adrenergic Receptor Binding Assay, 125I-HEAT radio-ligand binding, transfected COS-7 cell membranes, α1a subtype
T3 construct: expressed in transfected cells; host or cells: COS-7 cells (African Green monkey kidney), membranes
T3 sequence (P35348 1-466): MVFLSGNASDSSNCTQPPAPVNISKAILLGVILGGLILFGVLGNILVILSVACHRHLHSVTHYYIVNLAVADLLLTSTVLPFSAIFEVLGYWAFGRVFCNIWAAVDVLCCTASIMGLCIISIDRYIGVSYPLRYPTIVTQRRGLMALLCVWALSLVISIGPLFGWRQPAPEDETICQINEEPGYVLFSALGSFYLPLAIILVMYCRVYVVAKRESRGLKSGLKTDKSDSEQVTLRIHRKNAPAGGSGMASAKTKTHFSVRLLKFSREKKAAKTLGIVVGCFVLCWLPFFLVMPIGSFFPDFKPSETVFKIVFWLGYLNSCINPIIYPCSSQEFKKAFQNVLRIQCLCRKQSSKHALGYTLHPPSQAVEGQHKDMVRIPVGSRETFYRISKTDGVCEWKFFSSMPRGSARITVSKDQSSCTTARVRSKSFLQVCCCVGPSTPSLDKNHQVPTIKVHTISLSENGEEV
Method: as §1, §2, §3

[1] = average value, read-out: Alpha 1 Ki α1b (1) Average Value
[2] = individual values, read-out: Alpha 1 Ki α1b (2) Individual Values
[3] = average value, read-out: Alpha 1 Ki α1d (1) Average Value
[4] = individual values, read-out: Alpha 1 Ki α1d (2) Individual Values
[5] = average value, read-out: Alpha 1 Ki α1a (1) Average Value
[6] = individual values, read-out: Alpha 1 Ki α1a (2) Individual Values

SMILES	pKi (α1b-AR; [1])	pKi (α1b-AR; [2])	pKi (α1d-AR; [3])	pKi (α1d-AR; [4])	pKi (α1a-AR; [5])	pKi (α1a-AR; [6])
CC(C)Oc1ccccc1N1CCN(CC2CC(C(=O)N3CCc4ccc(N)cc43)=NO2)CC1 (centres unmarked) [Compound 14, (6-amino-2,3-dihydro-indol-1-yl)-{5-[4-(2-isopropoxy-phenyl)-piperazin-1-ylmethyl]-4,5-dihydro-isoxazol-3-yl}-methanone]	6.85	6.85	8.55	8.55	8.70	8.70
Cc1ccc2c(c1)CCN2C(=O)C1=NOC(CN2CCN(c3ccccc3OC(C)C)CC2)C1 (centres unmarked) [Compound 25, {5-[4-(2-isopropoxy-phenyl)-piperazin-1-ylmethyl]-4,5-dihydro-isoxazol-3-yl}-(5-methyl-2,3-dihydro-indol-1-yl)-methanone]	7.15	7.15	9.92	9.92	8.46	8.46
CC(C)Oc1ccccc1N1CCN(CC2CC(CN3CCCCC3=O)=NO2)CC1 (centres unmarked) [Compound 1, 1-{5-[4-(2-isopropoxy-phenyl)-piperazin-1-ylmethyl]-4,5-dihydro-isoxazol-3-ylmethyl}-piperidin-2-one]	7.09	7.09	8.07	8.07	9.02	9.02
CC(C)Oc1ccccc1N1CCN(CC2CC(C(=O)N3CCCC3)=NO2)CC1 (centres unmarked) [Compound 35, {5-[4-(2-isopropoxy-phenyl)-piperazin-1-ylmethyl]-4,5-dihydro-isoxazol-3-yl}-pyrrolidin-1-yl-methanone]	6.67	6.74 and 6.62	8.05	7.96 and 8.15	8.44	8.80 and 8.24
COc1cc2c(cc1OC)N(C(=O)C1=NOC(CN3CCN(c4ccccc4OC(C)C)CC3)C1)CC2 (centres unmarked) [Compound 23, (5,6-dimethoxy-2,3-dihydro-indol-1-yl)-{5-[4-(2-isopropoxy-phenyl)-piperazin-1-ylmethyl]-4,5-dihydro-isoxazol-3-yl}-methanone]	6.59	6.59	8.18	8.18	8.25	8.25
CC(C)Oc1ccccc1N1CCN(CC2CC(C(=O)N3CCc4ccccc43)=NO2)CC1 (single isomer, unassigned) [Compound 36, (2,3-dihydro-indol-1-yl)-{(5S*)-5-[4-(2-isopropoxy-phenyl)-piperazin-1-ylmethyl]-4,5-dihydro-isoxazol-3-yl}-methanone]	6.72		7.04		7.42	
CC(C)Oc1ccccc1N1CCN(CC2CC(C(=O)N3CCc4cc(Cl)ccc43)=NO2)CC1 (centres unmarked) [Compound 16, (5-chloro-2,3-dihydro-indol-1-yl)-{5-[4-(2-isopropoxy-phenyl)-piperazin-1-ylmethyl]-4,5-dihydro-isoxazol-3-yl}-methanone]	6.88	6.88	8.33	8.33	8.08	8.08
CC(C)Oc1ccccc1N1CCN(CC2CC(CN3CCCCC3=O)=NO2)CC1 (single isomer, unassigned) [Compound 3, 1-{(5S*)-5-[4-(2-isopropoxy-phenyl)-piperazin-1-ylmethyl]-4,5-dihydro-isoxazol-3-ylmethyl}-piperidin-2-one]	6.67	6.67	7.70	7.70	8.60	8.60
CC(C)Oc1ccccc1N1CCN(CC2CC(C(=O)N3CCC(C(=O)c4ccc(F)cc4)CC3)=NO2)CC1 (single isomer, unassigned) [Compound 40, [4-(4-fluoro-benzoyl)-piperidin-1-yl]-{(5S*)-5-[4-(2-isopropoxy-phenyl)-piperazin-1-ylmethyl]-4,5-dihydro-isoxazol-3-yl}-methanone]	6.27	6.27	8.34	8.34	8.19	8.19
CC(C)Oc1ccccc1N1CCN(CC2CC(C(=O)N3CCc4ccccc43)=NO2)CC1 (centres unmarked) [Compound 10, (2,3-dihydro-indol-1-yl)-{5-[4-(2-isopropoxy-phenyl)-piperazin-1-ylmethyl]-4,5-dihydro-isoxazol-3-yl}-methanone]	6.97	7.05 and 6.84 and 7.04 and 7.06 and 6.92	8.89		8.67	8.85 and 8.47 and 8.51 and 8.72 and 9.10
CC(C)Oc1ccccc1N1CCN(CC2CC(C(=O)N3CC(C)(C)c4cc(Br)ccc43)=NO2)CC1 (single isomer, unassigned) [Compound 43, (5-bromo-3,3-dimethyl-2,3-dihydro-indol-1-yl)-{(5S*)-5-[4-(2-isopropoxy-phenyl)-piperazin-1-ylmethyl]-4,5-dihydro-isoxazol-3-yl}-methanone]	5.97	5.97	6.99	6.99	6.50	6.50
CC(C)Oc1ccccc1N1CCN(CC2CC(CN3CCCCC3)=NO2)CC1 (centres unmarked) [Compound 5, 1-(2-isopropoxy-phenyl)-4-(3-piperidin-1-ylmethyl-4,5-dihydro-isoxazol-5-ylmethyl)-piperazine]	5.30	5.30	6.75	6.75	8.00	8.00
CC(C)Oc1ccccc1N1CCN(CC2CC(C(=O)N3CCC(C(=O)c4ccc(F)cc4)CC3)=NO2)CC1 (single isomer, unassigned) [Compound 41, [4-(4-fluoro-benzoyl)-piperidin-1-yl]-{(5R*)-5-[4-(2-isopropoxy-phenyl)-piperazin-1-ylmethyl]-4,5-dihydro-isoxazol-3-yl}-methanone]	5.77	5.77	7.24	7.24	6.62	6.62
